Consider three compounds from publication PMC9865903, “Improving the Antimycobacterial Drug Clofazimine through Formation of Organic Salts by Combination with Fluoroquinolones” (International Journal of Molecular Sciences, 2023).

Several values for one entry are separate records, joined by “and”; a condition that tells them apart may be missing. Identical values can stand only once.

The nature of data set [1]: Simultaneous thermal analysis (STA: thermogravimetry with DSC). The format is physicochemical. As to conditions: heating from room temperature to 500 °C at 5 °C/min, value in parentheses after melting point. The text has this:
Considering that thermal stability is an important issue for any API or derived formulation, both API-OSs were next tested by simultaneous thermal analysis (STA) which combines thermogravimetry with differential scanning calorimetry. Thermograms were obtained for the API-OSs and their parent fluoroquinolones (Figure 2), providing their respective melting points and decomposition temperatures. As shown in both Figure 2 and Table 1, the two new API-OSs have melting points lower than those of their respective parent APIs, as expected, but in all cases well above 100 °C, which is generally acknowledged as the threshold temperature separating common ILs from other types of GUMBOS. […] Therefore, the thermostability of this parent antimycobacterial drug is improved when it is forming an ionic pair with the selected fluoroquinolones.
The thermal stability of the compounds was evaluated using a Hitachi STA7200RV instrument (Scancsi, Vila Nova de Gaia, Portugal), following the manufacturer’s instructions. The compounds were subjected to heating from room temperature to 500 °C at a speed of 5 °C/min, obtaining the thermograms provided in Figure 2.

A short description of the next data set: physchem. As to conditions: organic solvent or mixture. The text has this: DMSO has been previously established as an adequate solvent for studies focused on Clf, including susceptibility testing on Mycobacteria.
The next data set concerns M. avium 2447 SmT. Nature of the data set: Antimycobacterial activity in axenic culture, broth microdilution with resazurin. The format is cell-based. Conditions: Mycobacterium avium, 168 h, 7 days at 37 °C, 4PL interpolation, parentheses = 95% confidence interval. As to the method:
The susceptibility of M. avium to the API-OSs and their parent drugs was first assessed in axenic culture to determine the IC50 of each test compound. To this end, the bacteria were incubated with increasing concentrations of the compounds for 7 days at 37 °C and their viability was assessed by the resazurin assay.
Mycobacterium avium 2447 smooth transparent (SmT) strain (kindly provided by Dr. F. Portaels, Institute of Tropical Medicine, Antwerp, Belgium) was grown to the mid-log phase in Middlebrook 7H9 medium (BD Difco^TM, Fisher Scientific, Porto Salvo, Portugal) containing 0.2% of glycerol (VWR International, Carnaxide, Portugal) and 10% of Albumin-Dextrose-Catalase (ADC, Merck KGaA, Darmstadt, Germany) supplement at 37 °C, as described previously.
The antimicrobial activity of the different compounds was assessed by broth microdilution, following the Clinical and Laboratory Standards Institute (CLSI) guidelines and as described previously, using stock solutions of the compounds in DMSO, due to the negligible solubility of Clf in water. Briefly, M. avium was grown in Middlebrook 7H9 medium to the exponential phase and 1 to 5 × 10^5 CFU/mL of bacteria was seeded in 96-well plates with increasing concentrations of the compounds. […] After 6 days of incubation, bacterial viability was assessed by resazurin reduction. Then, 10% (v/v) of resazurin (Sigma-Aldrich, St. Louis, MO, USA) at 2.5 mM in phosphate-buffered saline (PBS, Sigma-Aldrich, St. Louis, MO, USA) was added to each well, and after 24 h of incubation at 37 °C, the fluorescence of resorufin, resulting from the conversion of resazurin by metabolically active cells, was measured at λex = 530 nm and λem = 590 nm in a Synergy^TM Mx microplate reader from BioTek (Agilent Technologies Inc., Santa Clara, CA, USA) using the Gen5 software also from BioTek. The results are expressed as the percentage of the fluorescence obtained in experimental wells relative to the fluorescence obtained in nontreated wells.
The viability of both mycobacteria and host macrophages was determined by resazurin reduction as detailed above. […]
(In general: Broth dilution looks for growth in wells or tubes with falling amounts of substance.)

Data set [2] in a line: Toxicity to infected host macrophages, resazurin reduction. Conditions: male, C57BL/6, mouse; BMM infected with M. avium 2447 SmT, 5 days at 37 °C and 7% CO2, resazurin; 4PL interpolation; parentheses = 95% confidence interval; read-out: LC50. The format is cell-based, murine (C57BL/6 mice). The protocol: Considering that, after invading its mammalian host, M. avium replicates mainly inside macrophages, the toxicity of test compounds to infected murine bone marrow-derived macrophages (BMM) was also assessed. This was carried out by treating BMM infected with M. avium 2447 SmT with increasing concentrations of the test compounds for 5 days at 37 °C and 7% CO2. Macrophage viability was assessed through a resazurin reduction assay. As shown in Table 1 and Figure 4, though being more toxic to mammalian cells than their parent fluoroquinolones, the Clf-derived OSs seem less toxic to BMM than Clf itself. We are aware that the confidence intervals for LD50 values shown in Table 1 for Clf and its derived OSs have some degree of overlap which, alongside the large standard deviations depicted on the macrophage viability curves shown in Figure 4, are not statistically significant different.
Macrophages were derived from the bone marrow of male C57BL/6 mice bred at the i3S animal facility and infected with M. avium 2447 SmT as described previously. Immediately after infection, BMM were treated with different concentrations of each compound. Each condition was tested in triplicate. The intracellular growth of M. avium 2447 SmT was evaluated 5 days after infection, by colony-forming units (CFUs) assay, plating the bacteria in Middlebrook 7H10 agar (BD DifcoTM, Fisher Scientific, Porto Salvo, Portugal) supplemented with 10% Oleic Acid-Albumin-Dextrose-Catalase (OADC; Merck KGaA, Darmstadt, Germany) for at least 7 days at 37 °C. The viability of macrophages was determined by resazurin reduction as detailed above for mycobacteria.
The viability of both mycobacteria and host macrophages was determined by resazurin reduction as detailed above. IC50 (concentration that inhibits 50% of mycobacterial growth after 7 days of incubation) and LD50 (concentration that inhibits 50% of macrophage viability) values were interpolated by fitting the experimental data through a 4PL nonlinear sigmoidal curve using the GraphPad Prism software version 9 (GraphPad Software Inc., La Jolla, CA, USA). […]

The nature of data set [3]: Net charge at physiological pH. The format is physicochemical. As to conditions: at physiological pH 7.4. As to the method: Table 1 Physico-chemical properties and in vitro effects of the API-OSs and their parent drugs. The compounds were tested against both axenic cultures of M. avium 2447 SmT (IC50) and mammalian host cells (bone marrow-derived macrophages, BMM, LC50) infected with M. avium 2447 SmT. ^1. | column: Net Charge ^2

Details of data set [4]: method as in PMID 7617530, PMID 35300192. As to conditions: due to poor solubility in aqueous/polar media; cited from earlier work.
The conditions of data set [5]: in vivo, po; cited from earlier work.
The conditions of data set [6]: cited from earlier work.

Turning to `CC(C)/N=c1\cc2n(-c3ccc(Cl)cc3)c3ccccc3nc-2cc1Nc1ccc(Cl)cc1` [Clf, clofazimine], the “Decomposition Temperature” value in data set [1] is 221.9 (258.0) °C. Moreover, the solubility in the data set “physchem” was 4800 µg/mL and 10200 µM. The IC50 with M. avium 2447 SmT amounted to 0.33 µM. The CC50 at 5 days in data set [2] is 4.1 µM. Also, the “Net Charge” value in data set [3] was “+1”. Also, in data set [4], the “Biopharmaceutics Classification System class” value is on record as “class II”. In addition, in data set [5], the “absorption rates in humans” value is 45 to 62%. Further, in data set [6], the solubility in water result is on record as “virtually insoluble”.
In the case of `CCn1cc(C(=O)O)c(=O)c2cc(F)c(N3CCNCC3)cc21` [Nf, norfloxacin], the “Decomposition Temperature” value in data set [1] is 206.1 (222.0) °C. Further, the solubility in “physchem” is 11000 µg/mL and 34400 µM. For the same compound, the IC50 in the data set with M. avium 2447 SmT was 7.93 µM. Besides, the CC50 at 5 days in data set [2] was over 100 µM. Further, the “Net Charge” value in data set [3] was −1.
As to `CC1COc2c(N3CCN(C)CC3)c(F)cc3c(=O)c(C(=O)O)cn1c23` (centres unmarked) [Of, ofloxacin], the “Decomposition Temperature” value in data set [1] was 274.8 (318.8) °C. The IC50 in the data set with M. avium 2447 SmT was 3.85 µM. Also, the CC50 at 5 days in data set [2] was over 100 µM. Moreover, the “Net Charge” value in data set [3] is −1.

One may read the solubility as the dissolved amount per volume that the medium holds. What is called IC50 is the concentration needed to halve the response being measured.
